Laboratory results reported in ChEMBL document CHEMBL3507680, “University of Dundee, Gates Library screen for HepG2 cell viability”.

Experiment: Human HepG2 cell viability assay in 384 well format
Assay type: toxicity, cell-based
Design: dose 125 nL, time 70.5 hour; cytotoxicity at 70.5 h: concentration not given beside the values
Settings: HepG2 cells, read-out: Inhibition
In the case of O=C(NCCN1CCOCC1)c1ccn(COc2ccc(F)cc2)n1, the cytotoxicity at 70.5 h is reported as -5.85%.
CCc1nc(NS(=O)(=O)c2ccc(C)cc2Cl)no1 showed a cytotoxicity at 70.5 h of -4.3%.
In the case of CC(C)c1nc2c(n1C)CCN(CC(=O)Nc1ccncc1)C2, the cytotoxicity at 70.5 h is reported as -7.84%.
Work on Cn1cnc(S(=O)(=O)NCC2(O)CCOc3ccccc32)c1 (centres undefined) yielded a cytotoxicity at 70.5 h of -4.65%.
CC1(C2CCN(CC(N)=O)CC2)CN(Cc2ccccc2)C(=O)O1 (centres undefined) showed a cytotoxicity at 70.5 h of -5.3%.
For CCC1=N[C@@]2(CC[C@@H]3CN(CC4CC4)C[C@@H]32)C(=O)N1CC, the cytotoxicity at 70.5 h was -14%.
With CC(C)Cc1ncc2c(n1)CN(c1cc(N)nc(N)n1)C2 the cytotoxicity at 70.5 h was -1.3%.
O=c1ccc(-c2cccs2)nn1CN1CCN(C2CCS(=O)(=O)C2)CC1 (centres undefined) gave a cytotoxicity at 70.5 h of -10.9%.
Work on Nc1cc2c(nn1)CCN(C(=O)CC1CCCCC1)C2 yielded a cytotoxicity at 70.5 h of -8.85%.
Work on NC(=O)C1CCN(C(=O)NCc2ccccc2Cn2cncn2)CC1 yielded a cytotoxicity at 70.5 h of -3.83%.
With Cc1ccc(CN2CCOCC2)cc1NCc1ccsc1 the cytotoxicity at 70.5 h was -13.9%.
Compound Cc1nc(-c2ccc(CC(=O)N3CCN(C(=O)C4CC4)CC3)cc2)cs1 has a cytotoxicity at 70.5 h of -1.62%.
In the case of O=S(=O)(NCCn1ccc(-c2ccncc2)n1)C1CC1, the cytotoxicity at 70.5 h is reported as 0.267%.
Cc1cc(C)n(CC2CN(CCc3ccncc3)CCO2)n1 (centres undefined) gave a cytotoxicity at 70.5 h of -2.71%.
Cc1ccc(CNc2nc(O)cc(C3CC(=O)N(C)C3)n2)cc1 (centres undefined) gave a cytotoxicity at 70.5 h of -4.28%.
Work on Cc1ccoc1C(=O)N1CC(C(=O)NCC2CC2)C2(CCOCC2)C1 (centres undefined) yielded a cytotoxicity at 70.5 h of 1.52%.
With Cc1cncc(C(=O)N2CC[C@@H]3[C@H]2CCC(=O)N3CCN(C)C)c1 the cytotoxicity at 70.5 h was 2.21%.
For CCS(=O)(=O)CC(=O)NCC1(c2c(F)cccc2F)CCCC1, the cytotoxicity at 70.5 h was 18%.
Compound CCc1sc(C(=O)Nc2cnn(CCN(C)C)c2)cc1C has a cytotoxicity at 70.5 h of -17.9%.
In the case of O=C(NCC1(O)CCCCC1)c1coc(COc2cccc(F)c2)n1, the cytotoxicity at 70.5 h is reported as 1.09%.
With Cc1ncc(C(=O)N2CC[C@@]3(O)CCN(C(=O)N(C)C)C[C@H]3C2)cn1 the cytotoxicity at 70.5 h was -12.2%.
Compound Cc1nnsc1C(=O)N1CCCCC1c1cc2nc(C)c(C)c(O)n2n1 (centres undefined) has a cytotoxicity at 70.5 h of -2.13%.
Work on CN1CCN(C(=O)c2cn3ccsc3n2)[C@H]2CS(=O)(=O)C[C@H]21 yielded a cytotoxicity at 70.5 h of -11.3%.
With CCOCC1CN(Cc2ccco2)Cc2nccn2C1 (centres undefined) the cytotoxicity at 70.5 h was 3.52%.
With COCCOCC(=O)Nc1ccc(F)cc1C the cytotoxicity at 70.5 h was 11.3%.
For CC(C)CCC(=O)N(C)CC(=O)Nc1ccc(Br)cn1, the cytotoxicity at 70.5 h was 43.7%.
In the case of CCOC(=O)CN1C[C@@H]2OCCN(c3ncc(F)cn3)[C@@H]2C1, the cytotoxicity at 70.5 h is reported as 21.2%.
CCN1CCN(c2ccc(CNC(=O)c3ccc(Cl)o3)cn2)CC1 gave a cytotoxicity at 70.5 h of 3.11%.
With CC(CC(=O)N1CCCN(Cc2nccn2C)CC1)n1cccc1 (centres undefined) the cytotoxicity at 70.5 h was -12.4%.
Work on FC(F)(F)C1CN(Cc2cnc3c(-c4ccccc4)cnn3c2)CCO1 (centres undefined) yielded a cytotoxicity at 70.5 h of -7.58%.
Work on Cc1c(C(=O)N2CCC2)nnn1-c1ccc2ncccc2c1 yielded a cytotoxicity at 70.5 h of -3.53%.
Cc1cc(CN2CCCC2c2noc(C)n2)no1 (centres undefined) showed a cytotoxicity at 70.5 h of 4.25%.
O=S(=O)(NC[C@]12COC[C@H]1CN(c1ncc(F)cn1)C2)C1CC1 showed a cytotoxicity at 70.5 h of 19.1%.
With CCC(Sc1ncc(CO)n1C)c1ccccc1 (centres undefined) the cytotoxicity at 70.5 h was -10%.
Cn1nc(CN2CCC(c3ccncc3)CC2)c2c(Cl)cccc21 gave a cytotoxicity at 70.5 h of -0.977%.
In the case of Cc1ncnc2c1CCN(CC1CCOC1)CC2 (centres undefined), the cytotoxicity at 70.5 h is reported as -8.05%.
Work on CN(Cc1ccsc1)C(=O)c1ccc(S(=O)(=O)NC(C)(C)C)cc1 yielded a cytotoxicity at 70.5 h of -7.83%.
In the case of O=C(Nc1cccnc1)C1CN(C(=O)c2ccc3c(c2)OCO3)C1, the cytotoxicity at 70.5 h is reported as -14.4%.
With Cc1cc(NS(=O)(=O)c2ccc(Cl)s2)ccc1-n1cccc1C(=O)O the cytotoxicity at 70.5 h was -4.85%.
With O=C(NCC(F)(F)F)c1ccncc1 the cytotoxicity at 70.5 h was 12.7%.
Compound O=C(c1ccc2c(c1)CCO2)N1CCN(c2ncccn2)CC1 has a cytotoxicity at 70.5 h of 2.69%.
Cc1cc(CN2CC[C@H]3C(=O)N(c4ccccc4)CCO[C@H]3C2)no1 gave a cytotoxicity at 70.5 h of 23.6%.
In the case of COc1c(CNCc2ccc(Cn3ccnc3)cc2)c(C)nn1C, the cytotoxicity at 70.5 h is reported as 0.712%.
O=C(Cn1[nH]c2ccccc2c1=O)N1CCCC(CC2CC2)(C(=O)O)C1 (centres undefined) showed a cytotoxicity at 70.5 h of -7.99%.
